Results as given in patent publication US20110166221A1, “USE OF DRONEDARONE FOR THE PREPARATION OF A MEDICAMENT FOR USE IN THE PREVENTION OF CARDIOVERSION” (SANOFI-AVENTIS, priority 2008, published 2011).
Where a name gives a salt, the structure may show the parent alone.

Test system: patients with a history of atrial fibrillation or atrial flutter
Test: prospective, multinational, double-blind, randomized, multi-center, placebo-controlled, parallel group trial for the prevention of cardioversion
Format: in vivo, human
Experimental: Efficacy of dronedarone and its pharmaceutically acceptable salts versus placebo for the prevention of cardioversion was provided via dronedarone hydrochloride during a prospective, multinational, double-blind, randomized, multi-center, placebo-controlled, parallel group trial.
Patients must have a history of atrial fibrillation or atrial flutter and/or may be in normal sinus rhythm or in atrial fibrillation or flutter at the time of recruitment.
Recruitment of patients was conducted taking into account the following inclusion criteria:
• 1) One of the following risk factors had to be present: • age equal to or greater than 70 years, • hypertension (taking antihypertensives of at least two different classes), • diabetes, • history of cerebral stroke (transient ischemic event or completed cerebral stroke) or of systemic embolism, • left atrial diameter greater than or equal to 50 mm measured by echocardiography, • left ventricular ejection fraction less than 40%, measured by two-dimensional echography; • or • age equal to or above 70, or even above 75, possibly combined with at least one of the risk factors below: • hypertension (taking antihypertensives of at least two different classes), • diabetes, • history of cerebral stroke (transient ischemic event or completed cerebral stroke) or of systemic embolism, • left atrial diameter greater than or equal to 50 mm measured by echocardiography, • left ventricular ejection fraction less than 40%, measured by two-dimensional echography; • 2) availability of one electrocardiogram within the last six months, showing that the patients was or is in atrial fibrillation/flutter, • 3) availability of one electrocardiogram within the last six months, showing that the patients was or is in sinus rhythm.
Study drug treatment units (placebo or dronedarone hydrochloride corresponding to 400 mg of base) were such that each patient took one tablet in the morning during or shortly after breakfast and one tablet in the evening during or shortly after dinner.
The treatment duration depended on the time of recruitment of each patient in the trial and could be comprised from 12 months to 30 months.
Results were calculated using non-parametric Kaplan-Meier estimate.
Cox's proportional hazard model was used to estimate the hazard ratio also called relative risk.
Relative risk (RR) is the ratio between the risk of having a cardioversion for patients treated with dronedarone and the risk of having a cardioversion for patients treated with placebo.
Percentage of decrease of an event is calculated as follow: […]

CCCCc1oc2ccc(NS(C)(=O)=O)cc2c1C(=O)c1ccc(OCCCN(CCCC)CCCC)cc1 [dronedarone hydrochloride, 2-n-butyl-3-[4-(3-di-n-butylaminopropoxy)benzoyl]-5-methylsulfonamido-benzofuran]
events (cardioversion) registered (2301 of 4628 patients treated, 400 mg of base twice a day with meals, 12 to 30 months, placebo group 481 events): 339
Calculated relative risk (hazard ratio) of having a cardioversion versus placebo (Cox's proportional hazard model, 400 mg of base twice a day, 12 to 30 months, p<0.001): 0.68
time course of effect, Kaplan Meier cumulative incidence from randomization to first cardioversion (FIG. 1) (on-study period 12-30 months): occurred early and increased over time
decrease of electrical cardioversion (x=1-RR versus placebo, p<0.001): 32%
